Source: patent publication US9963467B2, “Boronic acid derivatives and therapeutic uses thereof” (Rempex Pharmaceuticals, Inc., priority 2014, dated 2018)

Assays:
Assay type in all cases: in vitro ADME
[1] = Serum stability of prodrugs, rat serum; conditions: theoretical initial conc. 20 ug/mL; for Measured Initial Conc. in Serum: 37 degrees; for Conc. at t = 1 hr / Conc. at t = 3 hr: prodrug
Protocol: (§1) Prodrug strategy is one of the ways to achieve or increase oral bioavailability for therapeutic drugs. […] After a prodrug molecule is absorbed into systemic circulation, it should be hydrolyzed in the blood in order to release the active form. Hydrolysis of several prodrugs by rat and human serum were evaluated.
(§2) For all stability experiments the test compounds were treated with rat or human serum in Eppendorf tubes. Typically, 992 μl of serum was prewarmed at 37 degrees for 2 minutes and then 8 μl of a compound (at 5 mg/ml, 125×) was added to it to get a final concentration of […] and immediately mixed. Alternatively, serum stability might be tested at 1 mg/ml. […] After vortexing for 30 seconds, the tube was centrifuged in a microcentrifuge for 10 minutes at 15K rpm. Next, 100 μl of the supernatant was combined with 600 μl of water and injected on LC-MS using 0.1% formic acid in water for mobile phase A and 0.1% formic acid in methanol for mobile phase B on an ACE 5 C18 2.1×100 mm column with a 10 μL injection. The flow rate and gradient were adjusted as needed to give the desired resolution and run time. The pH of the mobile phase was adjusted if needed to improve the chromatography.
(§3) The time course of both the disappearance of a prodrug and the appearance of the active form of that prodrug is presented in Table 6 and Table 7. The active metabolites for all of the listed prodrugs are corresponding parent drugs

[2] = Serum stability of prodrugs, human serum; conditions: theoretical initial conc. 20 ug/mL; for Measured Initial Conc. in Serum: 37 degrees; for Conc. at t = 1 hr: prodrug
[3] = Serum stability of prodrugs, human serum; conditions: human serum; prodrug; theoretical initial conc. 20 ug/mL
Protocol: as §1, §2, §3

In the case of CSCC(=O)N[C@H]1Cc2ccc(F)c(C(=O)OCOC(=O)C(C)(C)C)c2OB1O [Compound 18, (R)-pivaloyloxymethyl 7-fluoro-2-hydroxy-3-(2-(methylthio)acetamido)-3,4-dihydro-2H-benzo[e][1,2]oxaborinine-8-carboxylate], the “Measured Initial Conc. in Serum” value [1] is reported as 14.6 µg/mL, the “Conc. at t = 1 hr” value [1] is reported as 9390 ng/mL and the “Conc. at t = 3 hr” value [1] is reported as 3290 ng/mL. The “Measured Initial Conc. in Serum” value [2] was 16.3 µg/mL, the “Conc. at t = 1 hr” value [2] was 11600 ng/mL and the “Conc. at t = 3 hr” value [3] was 6270 ng/mL.

For CCOC(=O)OCOC(=O)c1c(F)ccc2c1OB(O)[C@@H](NC(=O)CSC)C2 [Compound 19, (R)-(ethoxycarbonyloxy)methyl 7-fluoro-2-hydroxy-3-(2-(methylthio)acetamido)-3,4-dihydro-2H-benzo[e][1,2]oxaborinine-8-carboxylate], the “Measured Initial Conc. in Serum” value [1] was 17.4 µg/mL, the “Conc. at t = 1 hr” value [1] was 0 ng/mL and the “Conc. at t = 3 hr” value [1] was 0 ng/mL. The “Measured Initial Conc. in Serum” value [2] was 20.3 µg/mL, the “Conc. at t = 1 hr” value [2] was 6110 ng/mL and the “Conc. at t = 3 hr” value [3] was 1170 ng/mL.

For COc1ccc2c(c1C(=O)OCOC(=O)OC(C)C)OB(O)[C@@H](NC(=O)CSC)C2 [Compound 40, isopropoxycarbonyloxymethyl(3R)-2-hydroxy-7-methoxy-3-[(2-methylsulfanylacetyl)amino]-3,4-dihydro-1,2-benzoxaborinine-8-carboxylate], the “Measured Initial Conc. in Serum” value [1] was 25.9 µg/mL, the “Conc. at t = 1 hr” value [1] was 2710 ng/mL and the “Conc. at t = 3 hr” value [1] was 740 ng/mL. The “Measured Initial Conc. in Serum” value [2] was 24.8 µg/mL, the “Conc. at t = 1 hr” value [2] was 23600 ng/mL and the “Conc. at t = 3 hr” value [3] was 19000 ng/mL.

In the case of CCOC(=O)OCOC(=O)c1c(OC)ccc2c1OB(O)[C@@H](NC(=O)CSC)C2 [Compound 41, ethoxycarbonyloxymethyl(3R)-2-hydroxy-7-methoxy-3-[(2-methylsulfanylacetyl)amino]-3,4-dihydro-1,2-benzoxaborinine-8-carboxylate], the “Measured Initial Conc. in Serum” value [1] is reported as 20.6 µg/mL, the “Conc. at t = 1 hr” value [1] is reported as 400 ng/mL and the “Conc. at t = 3 hr” value [1] is reported as 0 ng/mL. For the same molecule, the “Measured Initial Conc. in Serum” value [2] was 24.4 µg/mL, the “Conc. at t = 1 hr” value [2] was 20800 ng/mL and the “Conc. at t = 3 hr” value [3] was 20900 ng/mL.

In the case of COc1ccc2c(c1C(=O)OCOC(=O)C(C)C)OB(O)[C@@H](NC(=O)CSC)C2 [Compound 42, 2-methylpropanoyloxymethyl(3R)-2-hydroxy-7-methoxy-3-[(2-methylsulfanylacetyl)amino]-3,4-dihydro-1,2-benzoxaborinine-8-carboxylate], the “Measured Initial Conc. in Serum” value [1] is reported as 24.2 µg/mL, the “Conc. at t = 1 hr” value [1] is reported as 14100 ng/mL and the “Conc. at t = 3 hr” value [1] is reported as 5580 ng/mL. For the same molecule, the “Measured Initial Conc. in Serum” value [2] was 23.4 µg/mL, the “Conc. at t = 1 hr” value [2] was 19500 ng/mL and the “Conc. at t = 3 hr” value [3] was 16500 ng/mL.

For CSCC(=O)N[C@H]1Cc2ccc(F)c(C(=O)OCOC(=O)c3ccccc3)c2OB1O [Compound 43, benzoyloxymethyl(3R)-7-fluoro-2-hydroxy-3-[(2-methylsulfanylacetyl)amino]-3,4-dihydro-1,2-benzoxaborinine-8-carboxylate], the “Measured Initial Conc. in Serum” value [1] was 18.0 µg/mL, the “Conc. at t = 1 hr” value [1] was 11700 ng/mL and the “Conc. at t = 3 hr” value [1] was 4580 ng/mL. For the same molecule, the “Measured Initial Conc. in Serum” value [2] was 18.9 µg/mL, the “Conc. at t = 1 hr” value [2] was 8940 ng/mL and the “Conc. at t = 3 hr” value [3] was 3160 ng/mL.

In the case of CSCC(=O)N[C@H]1Cc2ccc(SC)c(C(=O)OCOC(=O)C(C)C)c2OB1O [Compound 44, 2-methylpropanoyloxymethyl(3R)-2-hydroxy-7-methylsulfanyl-3-[(2-methylsulfanylacetyl)amino]-3,4-dihydro-1,2-benzoxaborinine-8-carboxylate], the “Measured Initial Conc. in Serum” value [1] is reported as 18.4 µg/mL, the “Conc. at t = 1 hr” value [1] is reported as 16000 ng/mL and the “Conc. at t = 3 hr” value [1] is reported as 5210 ng/mL. The “Measured Initial Conc. in Serum” value [2] was 18.6 µg/mL, the “Conc. at t = 1 hr” value [2] was 18100 ng/mL and the “Conc. at t = 3 hr” value [3] was 12500 ng/mL.
